As usually defined, the IC50 is the point on the concentration scale where inhibition reaches its midpoint.

The source of these data is patent US20110224210A1, “NOVEL BIS-AMIDES AS ANTI-MALARIAL AGENTS” (priority 2008, published 2011).

The experiment concerns P. falciparum K1 (strain resistant to chloroquine and pyrimethamine), erythrocytic stages. The experiment in a line: Plasmodium falciparum in vitro assay, [3H] hypoxanthine incorporation. The note with it: Plasmodium falciparum, K1, P. falciparum strain K1; [3H] hypoxanthine incorporation; read-out: IC50 (nM) on K1. It counts as cell-based. The method in brief: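 Chloroquine/pyrimethamine-resistant K1 erythrocytic cultures (2.5% haematocrit, 0.3% parasitaemia, hypoxanthine-free RPMI with Albumax) exposed to seven doubling dilutions at 37 °C under low O2.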

Structures are written as SMILES. A value given as a limit tells only on which side of the number the result lay.

Consider `COCCN(C)C(=O)[C@H](Cc1ccccc1)N(Cc1ccc(-c2ccccn2)cc1)C(=O)C=Cc1ccc(Cl)nc1` [Example 85, (S)-3-(6-Chloro-pyridin-3-yl)-N-{1-[(2-methoxy-ethyl)-methyl-carbamoyl]-2-phenyl-ethyl}-N-(4-pyridin-2-yl-benzyl)-acrylamide], for which the half-inhibitory concentration (IC50) came out at 31 nM.

As to `COCCN(C)C(=O)[C@H](Cc1ccccc1)N(Cc1ccc(-c2ccccn2)cc1)C(=O)C=Cc1ccc(C)cn1` [Example 86, (S)-N-{1-[(2-Methoxy-ethyl)-methyl-carbamoyl]-2-phenyl-ethyl}-3-(5-methyl-pyridin-2-yl)-N-(4-pyridin-2-yl-benzyl)-acrylamide], the IC50 stood at 27 nM.

For the compound `COCCN(C)C(=O)[C@H](Cc1ccccc1)N(Cc1ccc(-c2ccccn2)cc1)C(=O)C=Cc1ccc(OC)nc1` [Example 87, (S)-N-{1-[(2-Methoxy-ethyl)-methyl-carbamoyl]-2-phenyl-ethyl}-3-(6-methoxy-pyridin-3-yl)-N-(4-pyridin-2-yl-benzyl)-acrylamide], the IC50 is below 8 nM.

For `COCCN(C)C(=O)[C@H](Cc1ccccc1)N(Cc1ccc(-c2ccccn2)cc1)C(=O)C=Cc1cnc(C(F)(F)F)nc1` [Example 88, (S)-N-{1-[(2-Methoxy-ethyl)-methyl-carbamoyl]-2-phenyl-ethyl}-N-(4-pyridin-2-yl-benzyl)-3-(2-trifluoromethyl-pyrimidin-5-yl)-acrylamide], the IC50 was determined as 45 nM.

On to `COCCN(C)C(=O)[C@H](Cc1ccccc1)N(Cc1ccc(-c2ccccn2)cc1)C(=O)C=Cc1ccc(C(F)(F)F)cn1` [Example 89, (S)-N-{1-[(2-Methoxy-ethyl)-methyl-carbamoyl]-2-phenyl-ethyl}-N-(4-pyridin-2-yl-benzyl)-3-(5-trifluoromethyl-pyridin-2-yl)-acrylamide], for which the IC50 is below 8 nM.

For the compound `COCCN(C)C(=O)[C@H](Cc1ccccc1)N(Cc1ccc(-c2ccccn2)cc1)C(=O)C=Cc1cnn(C)c1C` [Example 90, (S)-3-(1,5-Dimethyl-1H-pyrazol-4-yl)-N-{1-[(2-methoxy-ethyl)-methyl-carbamoyl]-2-phenyl-ethyl}-N-(4-pyridin-2-yl-benzyl)-acrylamide], the half-maximal inhibitory concentration (IC50) was 43 nM.

Turning to `COCCN(C)C(=O)[C@H](Cc1ccccc1)N(Cc1ccc(-c2ccncc2)cc1)C(=O)C=Cc1ccn(C)n1` [Example 91, (S)-N-{1-[(2-Methoxy-ethyl)-methyl-carbamoyl]-2-phenyl-ethyl}-3-(1-methyl-1H-pyrazol-3-yl)-N-(4-pyridin-4-yl-benzyl)-acrylamide], the IC50 amounted to 26 nM.

Take `COCCN(C)C(=O)[C@H](Cc1ccccc1)N(Cc1ccc(-c2ccncc2)cc1)C(=O)C=Cc1cnc(C)n1C` [Example 92, (S)-3-(2,3-Dimethyl-3H-imidazol-4-yl)-N-{1-[(2-methoxy-ethyl)-methyl-carbamoyl]-2-phenyl-ethyl}-N-(4-pyridin-4-yl-benzyl)-acrylamide]: the 50% inhibitory concentration (IC50) is 23 nM.

On to `COCCN(C)C(=O)[C@H](Cc1ccccc1)N(Cc1ccc(-c2ccncc2)cc1)C(=O)C=Cc1sc(C)nc1C` [Example 93, (S)-3-(2,4-Dimethyl-thiazol-5-yl)-N-{1-[(2-methoxy-ethyl)-methyl-carbamoyl]-2-phenyl-ethyl}-N-(4-pyridin-4-yl-benzyl)-acrylamide], for which the half-inhibitory concentration (IC50) is 13 nM.

With `COCCN(C)C(=O)[C@H](Cc1ccccc1)N(Cc1ccc(-c2ccncc2)cc1)C(=O)C=Cc1csc(C)n1` [Example 94, (S)-N-{1-[(2-Methoxy-ethyl)-methyl-carbamoyl]-2-phenyl-ethyl}-3-(2-methyl-thiazol-4-yl)-N-(4-pyridin-4-yl-benzyl)-acrylamide], the concentration for half-maximal inhibition (IC50) worked out at 15 nM.

Regarding `COCCN(C)C(=O)[C@H](Cc1ccccc1)N(Cc1ccc(-c2ccncc2)cc1)C(=O)C=Cc1cc(C)on1` [Example 95, (S)-N-{1-[(2-Methoxy-ethyl)-methyl-carbamoyl]-2-phenyl-ethyl}-3-(5-methyl-isoxazol-3-yl)-N-(4-pyridin-4-yl-benzyl)-acrylamide], the IC50 was found to be 33 nM.

Regarding `COCCN(C)C(=O)[C@H](Cc1ccccc1)N(Cc1ccc(-c2ccncc2)cc1)C(=O)C=Cc1c(C)noc1C` [Example 96, (S)-3-(3,5-Dimethyl-isoxazol-4-yl)-N-{1-[(2-methoxy-ethyl)-methyl-carbamoyl]-2-phenyl-ethyl}-N-(4-pyridin-4-yl-benzyl)-acrylamide], the IC50 was found to be 20 nM.

In the case of `COCCN(C)C(=O)[C@H](Cc1ccccc1)N(Cc1ccc(-c2ccncc2)cc1)C(=O)C=Cc1nc(C)oc1C` [Example 97, (S)-3-(2,5-Dimethyl-oxazol-4-yl)-N-{1-[(2-methoxy-ethyl)-methyl-carbamoyl]-2-phenyl-ethyl}-N-(4-pyridin-4-yl-benzyl)-acrylamide], the half-maximal inhibitory concentration (IC50) came out at 15 nM.

`COCCN(C)C(=O)[C@H](Cc1ccccc1)N(Cc1ccc(-c2ccncc2)cc1)C(=O)C=Cc1csnn1` [Example 98, (S)-N-{1-[(2-Methoxy-ethyl)-methyl-carbamoyl]-2-phenyl-ethyl}-N-(4-pyridin-4-yl-benzyl)-3-[1,2,3]thiadiazol-4-yl-acrylamide]: the IC50 was determined as 98 nM.

Regarding `COCCN(C)C(=O)[C@H](Cc1ccccc1)N(Cc1ccc(-c2ccncc2)cc1)C(=O)C=Cc1ccc(Cl)nc1` [Example 99, (S)-3-(6-Chloro-pyridin-3-yl)-N-{1-[(2-methoxy-ethyl)-methyl-carbamoyl]-2-phenyl-ethyl}-N-(4-pyridin-4-yl-benzyl)-acrylamide], the 50% inhibitory concentration (IC50) is 17 nM.

With `COCCN(C)C(=O)[C@H](Cc1ccccc1)N(Cc1ccc(-c2ccncc2)cc1)C(=O)C=Cc1ccc(C)cn1` [Example 100, (S)-N-{1-[(2-Methoxy-ethyl)-methyl-carbamoyl]-2-phenyl-ethyl}-3-(5-methyl-pyridin-2-yl)-N-(4-pyridin-4-yl-benzyl)-acrylamide], the 50% inhibitory concentration (IC50) was 12 nM.

`COCCN(C)C(=O)[C@H](Cc1ccccc1)N(Cc1ccc(-c2ccncc2)cc1)C(=O)C=Cc1ccc(OC)nc1` [Example 101, (S)-N-{1-[(2-Methoxy-ethyl)-methyl-carbamoyl]-2-phenyl-ethyl}-3-(6-methoxy-pyridin-3-yl)-N-(4-pyridin-4-yl-benzyl)-acrylamide]: the IC50 came out at 8 nM.

As to `COCCN(C)C(=O)[C@H](Cc1ccccc1)N(Cc1ccc(-c2ccncc2)cc1)C(=O)C=Cc1ccc(C(F)(F)F)cn1` [Example 102, (S)-N-{1-[(2-Methoxy-ethyl)-methyl-carbamoyl]-2-phenyl-ethyl}-N-(4-pyridin-4-yl-benzyl)-3-(5-trifluoromethyl-pyridin-2-yl)-acrylamide], the half-maximal inhibitory concentration (IC50) turned out to be 6 nM.

For the compound `COCCN(C)C(=O)[C@H](Cc1ccccc1)N(Cc1ccc(N2CCN(C(C)=O)CC2)cc1)C(=O)C=Cc1ccn(C)n1` [Example 103, (S)-N-[4-(4-Acetyl-piperazin-1-yl)-benzyl]-N-{1-[(2-methoxy-ethyl)-methyl-carbamoyl]-2-phenyl-ethyl}-3-(1-methyl-1H-pyrazol-3-yl)-acrylamide], the IC50 is 438 nM.

Regarding `COCCN(C)C(=O)[C@H](Cc1ccccc1)N(Cc1ccc(N2CCN(C(C)=O)CC2)cc1)C(=O)C=Cc1cc(C)nn1C` [Example 104, (S)-N-[4-(4-Acetyl-piperazin-1-yl)-benzyl]-3-(2,5-dimethyl-2H-pyrazol-3-yl)-N-{1-[(2-methoxy-ethyl)-methyl-carbamoyl]-2-phenyl-ethyl}-acrylamide], the concentration for half-maximal inhibition (IC50) amounted to 45 nM.

As to `COCCN(C)C(=O)[C@H](Cc1ccccc1)N(Cc1ccc(N2CCN(C(C)=O)CC2)cc1)C(=O)C=Cc1c(C)nn(C)c1C` [Example 105, (S)-N-[4-(4-Acetyl-piperazin-1-yl)-benzyl]-N-{1-[(2-methoxy-ethyl)-methyl-carbamoyl]-2-phenyl-ethyl}-3-(1,3,5-trimethyl-1H-pyrazol-4-yl)-acrylamide], the IC50 was 44 nM.

For the compound `COCCN(C)C(=O)[C@H](Cc1ccccc1)N(Cc1ccc(N2CCN(C(C)=O)CC2)cc1)C(=O)C=Cc1cnc(C)n1C` [Example 106, (S)-N-[4-(4-Acetyl-piperazin-1-yl)-benzyl]-3-(2,3-dimethyl-3H-imidazol-4-yl)-N-{1-[(2-methoxy-ethyl)-methyl-carbamoyl]-2-phenyl-ethyl}-acrylamide], the IC50 amounted to 470 nM.

Take `COCCN(C)C(=O)[C@H](Cc1ccccc1)N(Cc1ccc(N2CCN(C(C)=O)CC2)cc1)C(=O)C=Cc1sc(C)nc1C` [Example 107, (S)-N-[4-(4-Acetyl-piperazin-1-yl)-benzyl]-3-(2,4-dimethyl-thiazol-5-yl)-N-{1-[(2-methoxy-ethyl)-methyl-carbamoyl]-2-phenyl-ethyl}-acrylamide]: the concentration for half-maximal inhibition (IC50) was 70 nM.

With `COCCN(C)C(=O)[C@H](Cc1ccccc1)N(Cc1ccc(N2CCN(C(C)=O)CC2)cc1)C(=O)C=Cc1csc(C)n1` [Example 108, (S)-N-[4-(4-Acetyl-piperazin-1-yl)-benzyl]-N-{1-[(2-methoxy-ethyl)-methyl-carbamoyl]-2-phenyl-ethyl}-3-(2-methyl-thiazol-4-yl)-acrylamide], the concentration for half-maximal inhibition (IC50) was 225 nM.

In the case of `COCCN(C)C(=O)[C@H](Cc1ccccc1)N(Cc1ccc(N2CCN(C(C)=O)CC2)cc1)C(=O)C=Cc1c(C)noc1C` [Example 109, (S)-N-[4-(4-Acetyl-piperazin-1-yl)-benzyl]-3-(3,5-dimethyl-isoxazol-4-yl)-N-{1-[(2-methoxy-ethyl)-methyl-carbamoyl]-2-phenyl-ethyl}-acrylamide], the concentration for half-maximal inhibition (IC50) was 100 nM.

For the compound `COCCN(C)C(=O)[C@H](Cc1ccccc1)N(Cc1ccc(N2CCN(C(C)=O)CC2)cc1)C(=O)C=Cc1nc(C)oc1C` [Example 110, (S)-N-[4-(4-Acetyl-piperazin-1-yl)-benzyl]-3-(2,5-dimethyl-oxazol-4-yl)-N-{1-[(2-methoxy-ethyl)-methyl-carbamoyl]-2-phenyl-ethyl}-acrylamide], the half-maximal inhibitory concentration (IC50) came to 324 nM.

With `COCCN(C)C(=O)[C@H](Cc1ccccc1)N(Cc1ccc(N2CCN(C(C)=O)CC2)cc1)C(=O)C=Cc1ccc(OC)nn1` [Example 111, (S)-N-[4-(4-Acetyl-piperazin-1-yl)-benzyl]-N-{1-[(2-methoxy-ethyl)-methyl-carbamoyl]-2-phenyl-ethyl}-3-(6-methoxy-pyridazin-3-yl)-acrylamide], the IC50 is 214 nM.
